Test results taken from BindingDB's records for doi:10.1021/jm990537r (Cocensys, 2000).

Molecular target: Glutamate receptor ionotropic NMDA 2B (Rattus norvegicus) (UniProt Q00960)
Test: In vitro inhibition of NMDA responses at NR1A/2B receptor expressed in Xenopus oocytes

Glutamate receptor ionotropic NMDA 2B (Rattus norvegicus), sequence (Q00960 whole entry, looked up): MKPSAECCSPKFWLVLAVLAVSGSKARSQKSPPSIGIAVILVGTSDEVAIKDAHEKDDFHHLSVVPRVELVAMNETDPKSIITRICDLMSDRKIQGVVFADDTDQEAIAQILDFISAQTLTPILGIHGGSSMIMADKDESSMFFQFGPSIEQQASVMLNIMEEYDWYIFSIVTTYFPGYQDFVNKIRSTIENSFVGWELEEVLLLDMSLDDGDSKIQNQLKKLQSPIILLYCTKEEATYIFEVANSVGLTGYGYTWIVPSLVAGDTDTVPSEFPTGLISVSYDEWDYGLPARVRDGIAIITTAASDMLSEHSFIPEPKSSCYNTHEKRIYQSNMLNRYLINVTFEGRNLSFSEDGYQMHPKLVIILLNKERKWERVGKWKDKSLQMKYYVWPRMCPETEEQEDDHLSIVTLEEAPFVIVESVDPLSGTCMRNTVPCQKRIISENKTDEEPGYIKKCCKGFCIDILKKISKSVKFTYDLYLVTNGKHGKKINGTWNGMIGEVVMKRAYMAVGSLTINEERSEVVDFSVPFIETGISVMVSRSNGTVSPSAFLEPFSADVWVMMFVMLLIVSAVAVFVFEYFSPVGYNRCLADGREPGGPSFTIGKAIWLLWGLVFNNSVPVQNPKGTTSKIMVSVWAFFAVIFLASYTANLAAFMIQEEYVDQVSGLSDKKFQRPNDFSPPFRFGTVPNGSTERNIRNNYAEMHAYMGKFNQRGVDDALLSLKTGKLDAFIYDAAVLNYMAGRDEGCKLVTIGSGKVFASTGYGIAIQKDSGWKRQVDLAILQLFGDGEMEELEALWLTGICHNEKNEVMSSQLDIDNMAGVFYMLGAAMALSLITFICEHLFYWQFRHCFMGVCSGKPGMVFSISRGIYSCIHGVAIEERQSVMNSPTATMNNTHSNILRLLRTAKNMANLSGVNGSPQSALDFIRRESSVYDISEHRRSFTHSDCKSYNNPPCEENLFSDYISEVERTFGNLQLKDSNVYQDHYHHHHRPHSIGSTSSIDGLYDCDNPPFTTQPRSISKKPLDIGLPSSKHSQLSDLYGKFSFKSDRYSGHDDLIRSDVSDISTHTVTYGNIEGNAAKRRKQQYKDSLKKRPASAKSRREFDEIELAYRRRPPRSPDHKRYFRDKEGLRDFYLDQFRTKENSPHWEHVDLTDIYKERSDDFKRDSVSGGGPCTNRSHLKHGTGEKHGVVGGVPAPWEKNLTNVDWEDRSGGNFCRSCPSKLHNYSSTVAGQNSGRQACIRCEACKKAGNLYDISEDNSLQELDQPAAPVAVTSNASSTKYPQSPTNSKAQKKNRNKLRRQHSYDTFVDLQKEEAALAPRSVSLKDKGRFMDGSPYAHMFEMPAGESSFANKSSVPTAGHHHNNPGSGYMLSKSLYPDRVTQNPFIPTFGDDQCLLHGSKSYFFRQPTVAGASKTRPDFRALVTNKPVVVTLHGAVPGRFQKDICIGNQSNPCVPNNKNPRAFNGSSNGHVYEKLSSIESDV

IC50: 25 nM
Compound: Oc1ccc(OCCN2CCC(Cc3ccccc3)CC2)cc1 [4-[2-(4-Benzyl-piperidin-1-yl)-ethoxy]-phenol]
